In BindingDB's records for doi:10.1016/j.ejmech.2021.113889 (China Pharmaceutical University, 2021):

Molecular target: Glycogen synthase kinase-3 beta (Homo sapiens, UniProt P49841)
Assay: Binding affinity to recombinant GSK3beta (unknown origin) assessed as dissociation rate constant upto 0.00975 uM by SPR analysis

Chain of Glycogen synthase kinase-3 beta (P49841 whole entry): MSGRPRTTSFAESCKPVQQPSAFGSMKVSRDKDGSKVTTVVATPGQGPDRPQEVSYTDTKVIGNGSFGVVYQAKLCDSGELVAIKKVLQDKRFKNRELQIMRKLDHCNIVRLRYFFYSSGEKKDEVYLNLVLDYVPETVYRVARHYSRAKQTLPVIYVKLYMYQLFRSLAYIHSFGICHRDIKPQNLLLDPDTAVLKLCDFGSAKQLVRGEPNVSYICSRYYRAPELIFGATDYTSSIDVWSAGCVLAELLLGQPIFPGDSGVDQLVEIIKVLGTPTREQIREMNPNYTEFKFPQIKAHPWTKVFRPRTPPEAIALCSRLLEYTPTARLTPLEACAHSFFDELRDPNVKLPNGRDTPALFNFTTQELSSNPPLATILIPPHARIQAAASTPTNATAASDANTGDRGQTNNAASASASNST

With `Nc1ncc(-c2ccc(S(=O)(=O)N3CCN(CCCCc4cn(CCOCCOCCOCCOCCOCCNc5cccc6c5C(=O)N(C5CCC(=O)NC5=O)C6=O)nn4)CC3)cc2)nc1C(=O)Nc1cccnc1` (stereo unspecified) as the molecule, how does the koff read?
The koff was 0.0253 s⁻¹.
